Experimental findings from ChEMBL document CHEMBL5528053, “Discovery of Novel Isoquinoline Analogues as Dual Tubulin Polymerization/V-ATPase Inhibitors with Immunogenic Cell Death Induction” (J Med Chem, 2024) are described below.

Usually IC50 stands for the point on the concentration scale where inhibition reaches its midpoint. By inhibition is commonly meant the drop in the measured response relative to a control, in per cent.

Data set [1] concerns PC-3. Briefly: Induction of cell cycle arrest in human PC-3 cells assessed as accumulation of cells at G1 phase at 50 nM incubated for 24 hrs by flow cytometry analysis (reference value: 49.4%). The data set is classed as functional.
Data set [2] deals with PC-3. The data set is described as follows: Induction of apoptosis in human PC-3 cells assessed as viable cells at 100 nM measured after 24 hrs by annexin V-FITC and PI staining based flow cytometry analysis (reference value: 90.6%). The data set is classed as functional. The conditions noted are these: read-out: Activity. (In general: In flow cytometry, cells or beads pass a laser one at a time.)

A short description of data set [3]: Toxicity in ICR mouse assessed as effect on CK level at 10 mg/kg, ip measured for 14 days. The class given is organism-based. The settings on record: in vivo, 336 h, time 14 day.
Data set [4] is described as follows: Antitumor immunity against mouse RM1 cells homografted in C57BL/6 mouse model assessed as increase in tumor infiltrating helper T lymphocytes at 10 mg/kg, iv administered every two days for 14 days by flow cytometry analysis (reference value: 6.59%). The class given is functional. The settings on record: time 14 day.
Data set [5] has as its system MDA-MB-231. The data set is described as follows: Antiproliferative activity against human MDA-MB-231 cells assessed as inhibition of cell growth after 72 hrs by MTT assay. The data set is classed as functional, cell-based. The conditions noted are these: MDA-MB-231, 72 h. (In general: Tetrazolium assays rely on reduction of a dye to a coloured formazan, in cell work by metabolically active cells.)

Data set [6] relates to A549. The data set is described as follows: Inhibition of cell migration in human A549 cells at upto 100 nM incubated for 24 hrs by inverted fluorescence microscope analysis. The data set is classed as functional, cell-based.
Data set [7] deals with PC-3. Briefly: Induction of cell cycle arrest in human PC-3 cells assessed as accumulation of cells at S phase at 100 nM incubated for 24 hrs by flow cytometry analysis (reference value: 31.3%). The data set is classed as functional.
Data set [8] deals with PC-3. Briefly: Induction of apoptosis in human PC-3 cells assessed as early apoptotic cells at 200 nM measured after 24 hrs by annexin V-FITC and PI staining based flow cytometry analysis (reference value: 1.03%). The data set is classed as functional.
Data set [9] concerns PC-3. Briefly: Inhibition of V-ATPase activity in human PC-3 cells measured after 24 hrs by colorimetric assay. The class given is cell-based. The conditions noted are these: dose 50-800 nM.
A short description of data set [10]: Antitumor activity against mouse RM1 cells homografted in C57BL/6 mouse model assessed as tumor growth inhibition at 5 mg/kg, iv administered every two days for 14 days by vernier caliper based analysis relative to control. The settings on record: RM1, 336 h, time 14 day, read-out: TGI. The data set is classed as functional.
For data set [11], the system named is PC-3. Briefly: Induction of apoptosis in human PC-3 cells assessed as early apoptotic cells at 100 nM measured after 24 hrs by annexin V-FITC and PI staining based flow cytometry analysis (reference value: 1.03%). The data set is classed as functional.
Data set [12] concerns Cell membrane. The data set is described as follows: Induction of mitochondrial membrane potential loss in human PC-3 cells assessed as increase in green fluorescence at 50 to 200 nM incubated for 24 hrs by JC-1 staining based confocal microscopy analysis. The conditions noted are these: dose 50-200 nM.
In data set [13] the test system is PC-3. The data set is described as follows: Inhibition of V-ATPase activity in human PC-3 cells at 800 nM measured after 24 hrs by colorimetric assay relative to control. The data set is classed as cell-based.
Data set [14] can be described thus: Antitumor immunity against mouse RM1 cells homografted in C57BL/6 mouse model assessed as increase in tumor infiltrating CD3+CD8+T cells (CTLs) at 5 mg/kg, iv administered every two days for 14 days by flow cytometry analysis (reference value: 0.89%). The class given is functional. The settings on record: time 14 day.
In data set [15] the test system is RM1. Briefly: Anticancer activity against mouse RM1 cells assessed as increase in CRT expression at 400 nM measured after 24 hrs by flow cytometry analysis. The data set is classed as functional, cell-based.
Data set [16] is described as follows: Toxicity in ICR mouse assessed as effect on CRE level at 10 mg/kg, ip measured for 14 days. The class given is organism-based. The conditions noted are these: in vivo, 336 h, time 14 day.
Data set [17] relates to PC-3. The data set is described as follows: Inhibition of autophagy in human PC-3 cells assessed as decrease in colocalization region at 50 to 200 uM measured after 3 hrs by immunofluorescence imaging based analysis. The data set is classed as functional, cell-based. The conditions noted are these: dose 50-200 µM.
Data set [18] can be described thus: Toxicity in ICR mouse assessed as effect on lymphocytes at 10 mg/kg, ip measured for 14 days. The class given is organism-based. The conditions noted are these: in vivo, 336 h, time 14 day.
For data set [19], the system named is PC-3. Briefly: Induction of cell cycle arrest in human PC-3 cells assessed as reduction in cyclin B1 at 50 to 200 nM incubated for 24 hrs by DAPI staining based analysis. The class given is functional. The conditions noted are these: dose 50-200 nM.
Data set [20] has as its system PC-3. The data set is described as follows: Downregulation of acetyl-alpha tubulin expression in human PC-3 cells incubated for 24 hrs by Western blot analysis. The data set is classed as functional, cell-based. The conditions noted are these: dose 50-200 nM. Background: Immunoblotting shows a protein as a band on a membrane.
The test system of data set [21] is PC-3. Briefly: Induction of intracellular ROS generation in human PC-3 cells incubated for 24 hrs by DCFH-DA staining based confocal microscopy based analysis. The class given is functional, cell-based. The settings on record: dose 50-200 nM.
The subject of data set [22] is PC-3. The data set is described as follows: Induction of immunogenic cell death in human PC-3 cells assessed as increase in HMGB1 release from nuclei at 50 to 200 nM measured after 24 hrs by DAPI staining based analysis. The data set is classed as functional. The settings on record: dose 50-200 nM.
The subject of data set [23] is RM1. Briefly: Antitumor immunity against mouse RM1 cells homografted in C57BL/6 mouse model assessed as increase in activation of tumor infiltrating lymphocytes in spleen at 5 to 10 mg/kg, iv administered every two days for 14 days by flow cytometry analysis. The settings on record: dose 5-10 mg/kg, time 14.0 day. The class given is functional, organism-based.
Data set [24] deals with PC-3. Briefly: Induction of endoplasmic reticulum (ER) stress in human PC-3 cells assessed as upregulation of CHOP phosphorylation level at 50 to 200 nM measured after 24 hrs by Western blot analysis. The data set is classed as functional, cell-based. The settings on record: dose 50-200 nM.

Activity calls are given as the source filed them. No cut-off for these calls is given here.

Consider `COc1cc(-c2nc(C(N)=O)cc3cc4c(cc23)OCCO4)cc(Br)c1OC`, for which the Activity in [1] is recorded as 39.8%; in [3], “Non-Toxic”; in data set [4], 14.2%; in [7], 22.3%; in data set [8], 22.7%; in data set [11] it was 21.6%. Moreover, the Activity is 1.59% in data set [14]; “Non-Toxic” in data set [16]; “Non-Toxic” in data set [18]; “Dose-Dependent Effect” in data set [20]; “Dose-Dependent Effect” in [21]. The viability at 0.1 µM in data set [2] amounted to 61.7%. In [5], the IC50 was 130 nM. For the same molecule, the inhibition entry in [6] and in [17] was “Active” in each case. The inhibition result in [9] was “Dose-Dependent Effect”; in data set [13], 77.4%. In [10], the inhibition in vivo at 5 mg/kg came out at 61.6%. In addition, the result in [12], in [15], in data set [19], in data set [22], in [23] and in data set [24] was Active.
